Reference: patent US20250114368A1, “COMPOSITIONS AND METHODS RELATING TO PEDIATRIC NEUROMUSCULAR DISEASES AND NEUROGENERATIVE DISORDERS” (Ann and Robert H. Lurie Children's Hospital of Chicago, priority 2023, published 2025)
Entries after “also recorded” stand apart in the source; their conditions may differ.

Tests used:
[1] = test system: human SMA iPSC-derived motor neurons; experiment: Degeneration of human SMA iPSC-derived motor neurons (TuJ1 and Isl1-positive motor neurons as percentage of DAPI positive cells); format: cell-based; conditions: week 3 to week 6 in culture
From the text: FIGS. 8A-8M: Inhibition of Cdk5 signaling pathway decreases the degeneration of human SMA iPSC-derived motor neurons. (A-L) Immunostaining of human iPSC-derived motor neurons with antibodies recognizing neuronal marker TuJ1 (green in A-L), motor neuron marker Isl1 (red in A-L), and nucleus marker DAPI (blue in A-L). […] (M) Quantification of TuJ1 and Isl1-positive motor neurons as a percentage of all DAPI positive cells in a human iPSC model of SMA treated with inhibitors of Cdk5 signaling. […] Data are from four independent experiments and are mean±SEM. ** P<0.01, *** p<0.001, **** P<0.0001, Student's t test.
(§1) Human SMA iPSC and Mouse Motor Neuron Culture. Human iPSCs were generated and differentiated as described in the Examples. Briefly, primary fibroblasts were isolated from de-identified type I SMA patients and their unaffected relatives, infected with lentiviral constructs expressing OCT4, SOX2, NANOG, and LIN28 or episomally expressed reprogramming plasmids to generate iPSCs. Retinoic acid, sonic hedgehog, cAMP, ascorbic acid, brain-derived neurotrophic factor (BDNF) and glial cell line-derived neurotrophic factor (GDNF) were used to induce iPSC spheres to differentiate into motor neurons. […] Cell death was detected by the in situ cell death detection TMR red TUNEL (Terminal Transferase dUTP Nick End Labeling) kit. […]

[2] = test system: SMA motor neuron; experiment: Dosage effect of BML259 on primary mouse motor neurons: toxic effect (cell morphology and viability, bright field microscope); format: cell-based; conditions: two days
From the text: (§2) Human SMA iPSC and Mouse Motor Neuron Culture. Human iPSCs were generated and differentiated as described in the Examples. Briefly, primary fibroblasts were isolated from de-identified type I SMA patients and their unaffected relatives, infected with lentiviral constructs expressing OCT4, SOX2, NANOG, and LIN28 or episomally expressed reprogramming plasmids to generate iPSCs. Retinoic acid, sonic hedgehog, cAMP, ascorbic acid, brain-derived neurotrophic factor (BDNF) and glial cell line-derived neurotrophic factor (GDNF) were used to induce iPSC spheres to differentiate into motor neurons. Primary neurons from mouse spinal cords were cultured in Neurobasal (Life Technologies) supplemented with B27 (Life Technologies) as described. Briefly, spinal cords from E12.5 mouse embryos were dissected out and dissociated with 0.25% trypsin. After enriching motor neurons with Optiprep density gradient centrifugation and BSA cushion, cells were seeded on glass cover slips coated with 20 μg/ml Poly-L-Lysine (PLL) (Sigma) and 8 μg/ml Laminin (Sigma), and grown in the presence of […] (PeproTech). Cell death was detected by the in situ cell death detection TMR red TUNEL (Terminal Transferase dUTP Nick End Labeling) kit. Cdk5 inhibitor BML259 (300 nM) (Cayman Chemical) and calpain inhibitor Calpeptin (10 μM) (Tocris Bioscience) were applied from week 3 to 6 into iPSC motor neuron medium to inhibit Cdk5 signaling.
(§3) Different concentrations of Cdk5 inhibitor BML259 were applied on primary motor neurons from wild type and SMA mice. After two days, treated and untreated cells were compared to identify potential toxic effects of causing additional cell death by checking cell morphology and viability using a bright field microscope.

[3] = test system: WT motor neuron; experiment: as above; format: cell-based; conditions: two days
From the text: as §2, §3

[4] = test system: SMA iPSC motor neurons; experiment: iPSC motor neuron degeneration measured by TUNEL; format: cell-based, human; conditions: 300 nM
Procedure: (§4) Calpeptin (10 μM) (A) was used to inhibit calpain activity, and 300 nM BML259 (B) was used to inhibit Cdk5 activity in control and SMA iPSC motor neurons. Data are from four independent experiments and are mean±SEM. ** p<0.01, *** p<0.001, Student's t test. […] Levels of different mRNA in each sample are calculated as relative to gapdh mRNA. The level of gapdh mRNA is presented as relative to the average of four samples. The measurement of each sample was repeated three times and four sets of mice were used. Results are mean±SEM. ** p<0.01, Student's t test.
as §1

[5] = test system: SMA motor neurons; experiment: TUNEL staining of degenerating primary spinal motor neurons cultured from Δ7 SMA mice; format: cell-based, mouse; conditions: 300 nM applied at 3 DIV, assayed on 6 DIV
From the text: FIGS. 4A-4D: Mitigating aberrant Cdk5 activation ameliorates the degeneration of motor neurons from SMA mice. (A-B) Primary spinal motor neurons from SMA mice cultured 6 days in vitro (6 DIV) were stained by antibodies recognizing motor neuron marker Isl1 (magenta in A, B) and pan-neuronal marker TuJ1 (green in A). DAPI nuclear staining marks all cells in the culture. (C) Western blot analysis of Cdk5 knockdown in motor neurons treated with shRNA. […] Motor neurons were infected with lentivirus on 4 DIV and cultured for another 3 days before Western blot analysis. Two examples of Cdk5 shRNA knockdown were shown, with the expression of GAPDH as loading control. (D) Quantification of TUNEL+ degenerating motor neurons from WT and SMA mice. […]
Human SMA iPSC and Mouse Motor Neuron Culture. […] Cell death was detected by the in situ cell death detection TMR red TUNEL (Terminal Transferase dUTP Nick End Labeling) kit. […]
Mitigating Aberrant Cdk5 Activation Reduces the Degeneration of SMA Mouse Motor Neurons. Experiments were conducted during development of embodiments herein to determine whether reducing aberrant Cdk5 activation in SMA conditions serve to ameliorate motor neuron degeneration; the degeneration of motor neurons cultured from Δ7 SMA mice and control mice by TUNEL staining was monitored. […]

[6] = test system: SMA iPSC motor neurons; experiment: iPSC motor neuron degeneration measured by choline acetyltransferase (ChAT) staining; format: cell-based, human; conditions: 10 μM
Procedure: as §4, §1

[7] = test system: SMA non-integrating iPSC-derived motor neurons; experiment: Motor neuron degeneration in non-integrating iPSC SMA model (Isl1+ and TuJ1+ motor neurons as percentage of DAPI-positive cells); format: cell-based, human; conditions: 10 μM
From the text: FIGS. 9A-C: (A) The increase of Cdk5 kinase activity in E18.5 SMA mouse spinal cord is not significant. Endogenous Cdk5 was immunoprecipitated from spinal cord lysates of E18.5 WT and SMA mice and measured kinase activity of phosphorylating Histone H1 with ^32P-γ-ATP. The same levels of Cdk5 and purified Histone H1 used in kinase assay reactions were monitored by Western blotting. Data are mean±SEM, Student's t test (n=12, P=0.0875). […] Endogenous Cdk5 was immunoprecipitated from motor neurons differentiated from WT and SMA non-integrating iPSCs. Kinase activities were quantified by the phosphorylation of Histone H1 with ^32P-γ-ATP. The same levels of Cdk5 and Histone H1 were monitored by Western blot. Data are mean±SEM, Student's t test (n=12, P<0.0001). […] Calpain inhibitor Calpeptin (10 μM) was applied to WT and SMA non-integrating iPSC-derived motor neurons. The number of Isl1+ and TuJ1+motor neurons as a percentage of all DAPI-positive cells was quantified from 1490 motor neurons in four independent experiments and are mean±SEM. ** p=0.0045, Student's t test.
Human SMA iPSC and Mouse Motor Neuron Culture. Human iPSCs were generated and differentiated as described in the Examples. […] Cell death was detected by the in situ cell death detection TMR red TUNEL (Terminal Transferase dUTP Nick End Labeling) kit. […]

SMILES	Degeneration of motor neurons (TuJ1 and Isl1-positive, % of DAPI positive cells) in human SMA iPSC culture ([1]; 300 nM)	Toxic Effect on SMA motor neuron ([2]; 50 nM)	Toxic Effect on SMA motor neuron ([2]; 150 nM)	Toxic Effect on SMA motor neuron ([2]; 300 nM)	Toxic Effect on SMA motor neuron ([2]; 450 nM)	Toxic Effect on SMA motor neuron ([2]; 600 nM)	Toxic Effect on WT motor neuron ([3]; 50 nM)	Toxic Effect on WT motor neuron ([3]; 150 nM)	Toxic Effect on WT motor neuron ([3]; 300 nM)	Toxic Effect on WT motor neuron ([3]; 450 nM)	Toxic Effect on WT motor neuron ([3]; 600 nM)	iPSC motor neuron degeneration by TUNEL [4]	TUNEL+ degenerating motor neurons from SMA mice [5]	Degeneration of motor neurons (TuJ1 and Isl1-positive, % of DAPI positive cells) in human SMA iPSC culture ([1]; 10 μM)	iPSC motor neuron degeneration by ChAT staining [6]	Motor neuron degeneration in non-integrating iPSC SMA model [7]
CC(C)c1cnc(NC(=O)Cc2ccccc2)s1 [BML259, N-(5-isopropyl-thiazol-2-yl)phenylacetamide]	alleviated the degeneration of Isl1-positive motor neurons; also recorded: significantly reduces the degeneration of motor neurons	no	no	no	strong	very strong	no	no	no	weak	strong	reduces iPSC motor neuron degeneration	significantly reduced the degeneration of SMA motor neurons			
CCCC[C@@H](C=O)NC(=O)[C@H](CC(C)C)NC(=O)OCc1ccccc1 [Calpeptin]														alleviated the degeneration of Isl1-positive motor neurons; also recorded: significantly reduces the degeneration of motor neurons	reduces iPSC motor neuron degeneration	significantly reduces motor neuron degeneration
